Data reported in patent US5607926A, “Cephalosporin antibiotics” (Microcide Pharmaceuticals, Inc., priority 1995, dated 1997).
Values after ≈ are worked out from the molar mass of the structure shown. Like-named read-outs stand apart in the source and are kept apart here.

Experiments:
[1] = test system: S. aureus Col (Meth^R)(lac^-); assay: In vitro antibacterial evaluation, MIC by agar dilution, S. aureus Col; format: cell-based; details: S. aureus Col
Description: (§1) The compounds of the invention were evaluated against several β-lactamresistant bacteria strains by determining the minimum inhibitory concentration (MIC, μg/ml) of each compound with respect to each strain. The MIC, the lowest concentration of antibiotic which inhibits growth of the test organism, was determined by the agar dilution method.
(§2) To determine the MIC for bacterial isolates, the test compound was incorporated in a series of two-fold dilutions into liquified Mueller-Hinton agar. Upon solidification, a number of different bacterial strains were spot inoculated with a replicating device onto the agar surface. […] The procedures used in these studies have been standardized by the National Committee for Clinical Laboratory Standards (NCCLS), as per the NCCLS publication entitled METHODS FOR DILUTION ANTIMICROBIAL SUSCEPTIBILITY TESTS (1991), which is incorporated herein by reference.
(§3) Aliquots of antimicrobial agents were prepared in phosphate buffered saline (PBS) at pH 7.2. Tween 20 or DMSO was used as a solubilizing vehicle as needed. Standard methods of vortexing, sonicating and gentle heat were used to facilitate solubilizing the test agent. Typically, the concentration of the stock solution was 10× that of the highest drug concentration tested. A 1.28 mg/mL stock solution was used with a subsequent highest working concentration of 128 μg/mL. Serial two-fold dilutions were done through ≤0.25 μg/mL. Each drug level was tested in duplicate. Two-fold drug dilutions were done in sterile 50 mL tubes with a final drug volume of 5 mL. Upon the addition of 45 mL of molten agar, a 10-fold dilution resulted. Two, 25 mL. plates were then poured into 15×150 mm square Petri plates with grids and allowed to harden.
(§4) A control plate with a reference drug, either cefotaxime, vancomycin or imipenem, was used as the positive growth control. Stock concentrations of reference antibiotics were prepared and frozen at -80° C. Upon preparation, the control plates were sealed and stored in the refrigerator for up to 1 week prior to use; however, imipenem control plates had to be prepared just prior to use. All test plates were used within 24 hours of preparation.
(§5) Satisfactory results were obtained where the inoculum contained about 10^4 colony forming units (cfu) ±0.5 logs. Starting with pure cultures of the test isolates on agar plates, a few isolated colonies were transferred to a tube of nutrient broth and allowed to grow 4-6 hours at 35°-36° C. to reach log-phase growth. Dropwise addition of the broth culture to PBS was done to match a 0.5 McFarland turbidity standard equal to 10^8 cfu/mL. This was further diluted ten-fold in PBS to reach a working inoculum concentration of 10^7 cfu/mL. When 1 μL of the working inoculum was applied to the agar surface a concentration of about 10^4 cfu per spot was obtained.
(§6) Disposable sterile 1 μL loops were used to inoculate test plates, with each isolate in a designated grid on the agar plate. An alternate method of inoculation involved the use of a replica plater, a device with 48 steel pins allowing the simultaneous inoculation of multiple isolates. After the spots had dried, the plates were incubated at 35°-36° C. for 16-20 hours. Endpoints were assessed as the minimum inhibitory concentration (MIC) of antimicrobial agent.
The novel agents of this invention are notable for their enhanced activity against S. aureus Col and Enterococci (E. faecium and E. faecalis). […]

P. aeruginosa ATCC 27853 = assay: In vitro antibacterial evaluation, MIC by agar dilution, P. aeruginosa ATCC 27853; format: cell-based; details: Pseudomonas aeruginosa, ATCC27853, read-out: MIC
Procedure, shortened: (§7)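 Log-phase isolates were spot-inoculated at about 10^4 cfu per spot onto Mueller-Hinton agar plates containing twofold compound dilutions (highest working concentration 128 μg/mL, lowest ≤0.25 μg/mL, duplicates). After 16-20 h at 35-36 °C, the lowest growth-inhibiting level was taken as MIC, per NCCLS agar dilution.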

[2] = test system: Enterococci (E. faecium and E. faecalis); assay: In vitro antibacterial evaluation, Enterococci (E. faecium and E. faecalis); format: cell-based
Description: as §1, §2
Aliquots of antimicrobial agents were prepared in phosphate buffered saline (PBS) at pH 7.2. Tween 20 or DMSO was used as a solubilizing vehicle as needed. Standard methods of vortexing, sonicating and gentle heat were used to facilitate solubilizing the test agent. […]
Disposable sterile 1 μL loops were used to inoculate test plates, with each isolate in a designated grid on the agar plate. […] Endpoints were assessed as the minimum inhibitory concentration (MIC) of antimicrobial agent. […]

E. faecalis ATCC 29212 = assay: In vitro antibacterial evaluation, MIC by agar dilution, E. faecalis ATCC 29212; format: cell-based; details: Enterococcus faecalis, ATCC29212; E. faecalis ATCC 29212; read-out: MIC
Procedure, shortened: as §7

S. aureus ATCC 25923 = assay: In vitro antibacterial evaluation, MIC by agar dilution, S. aureus ATCC 25923; format: cell-based; details: Staphylococcus aureus, ATCC25923
Procedure, shortened: as §7

E. coli ATCC 25922 = assay: In vitro antibacterial evaluation, MIC by agar dilution, E. coli ATCC 25922; format: cell-based; details: Escherichia coli, ATCC25922, read-out: MIC
Procedure, shortened: as §7

[3] = test system: S. epidermidis ATCC 31432; assay: In vitro antibacterial evaluation, MIC by agar dilution, S. epidermidis ATCC 31432; format: cell-based; details: Staphylococcus epidermidis, ATCC31432
Procedure, shortened: as §7

S. aureus ATCC 29213 = assay: In vitro antibacterial evaluation, MIC by agar dilution, S. aureus ATCC 29213; format: cell-based; details: Staphylococcus aureus, ATCC29213
Procedure, shortened: as §7

[4] = test system: X. maltophilia ATCC 13637; assay: In vitro antibacterial evaluation, MIC by agar dilution, X. maltophilia ATCC 13637; format: cell-based; details: Stenotrophomonas maltophilia, ATCC13637
Description: as §1, §2, §3, §4, §5, §6

[5] = test system: S. aureus Col8A (Meth^S)(lac^-); assay: In vitro antibacterial evaluation, MIC by agar dilution, S. aureus Col8A; format: cell-based; details: Staphylococcus aureus
Procedure, shortened: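 Log-phase isolates were spot-inoculated at about 10^4 cfu onto Mueller-Hinton agar carrying duplicate two-fold compound levels, 128 μg/mL to ≤0.25 μg/mL, following NCCLS (1991). Plates were read after 16-20 h at 35°-36° C. The lowest growth-inhibiting concentration gave the MIC (μg/ml).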

MRSA strains = details: background art; cited from earlier work
E. faecium ATCC 35667 = assay: In vitro antibacterial evaluation, MIC by agar dilution, E. faecium ATCC 35667; format: cell-based; details: Enterococcus faecium, ATCC35667, read-out: MIC
Procedure, shortened: as §7

S. haemolyticus (Meth^R) = assay: In vitro antibacterial evaluation, MIC by agar dilution, S. haemolyticus; format: cell-based; details: Staphylococcus haemolyticus, read-out: MIC
Procedure, shortened: as §7

[6] = test system: S. aureus 76 (Meth^R)(lac^+); assay: In vitro antibacterial evaluation, MIC by agar dilution, S. aureus 76; format: cell-based; details: Staphylococcus aureus, read-out: MIC
Procedure, shortened: as §7

SMILES	activity against S. aureus Col [1]	MIC (P. aeruginosa ATCC 27853)	activity against enterococci [2]	MIC (E. faecalis ATCC 29212)	MIC (S. aureus ATCC 25923; S. aureus ATCC 25923, read-out: MIC)	MIC (E. coli ATCC 25922)	MIC ([3]; S. epidermidis ATCC 31432, read-out: MIC)	MIC (S. aureus ATCC 29213; S. aureus ATCC 29213, read-out: MIC)	MIC [4]	MIC [5]	activity against MRSA strains (MRSA strains)	activity against S. aureus Col, S. aureus Col 8A and Enterococci ([1]; S. aureus Col 8A, Enterococci)	MIC (E. faecium ATCC 35667)	MIC (S. aureus ATCC 25923)	MIC [3]	MIC (S. aureus ATCC 29213)	MIC (S. haemolyticus (Meth^R))	MIC [6]
O=C(Cc1ccccc1)N[C@@H]1C(=O)N2C(C(=O)O)=C(SCc3ccc(-c4ccccc4)cc3)CS[C@H]12 [Cmpd 12, (7R)-7-[(Phenylacetyl)amino]-3-(4-biphenylmethylthio)-3-cephem-4-carboxylic acid]	lacking activity against S. aureus Col	> 32 µg/mL	potent activity against enterococci	4 µg/mL (≈ 7.74 µM)	< 0.06 µg/mL	> 32 µg/mL	< 0.06 µg/mL	< 0.06 µg/mL	> 32 µg/mL	< 0.06 µg/mL	–	–	–	–	–	–	–	–
C[C@@H](O)[C@H]1C(=O)N2C(C(=O)O)=C(SCCN=CN)C[C@H]12 [imipenem]	–	–	–	–	–	–	–	–	–	–	active against a few MRSA strains	–	–	–	–	–	–	–
O=C(Cc1ccccc1)N[C@@H]1C(=O)N2C(C(=O)O)=C(Sc3ccccc3I)CS[C@H]12 [Cmpd 6, (7R)-7-[(Phenylacetyl)amino]-3-(o-iodophenylthio)-3-cephem-4-carboxylic acid]	–	> 32 µg/mL	–	0.5 µg/mL (≈ 0.905 µM)	–	> 32 µg/mL	–	–	> 32 µg/mL	< 0.015 µg/mL	–	broad activity against both S. aureus Col and S. aureus Col 8A, as well as Enterococci	0.5 µg/mL (≈ 0.905 µM)	< 0.015 µg/mL	< 0.015 µg/mL	< 0.015 µg/mL	4 µg/mL (≈ 7.24 µM)	1 µg/mL (≈ 1.81 µM)
